13 molecules from patent publication US10703757B2, “Compounds and methods for CDK8 modulation and indications therefor” (Plexxikon Inc., priority 2016, dated 2020) can be followed below.

Assay [1] has as its system CDK8 (TCF/LEF luciferase reporter in HCT116 cells). Briefly: Cell based TCF/LEF reporter assay (HCT116+TCF/LEF luciferase). The note with it: Homo sapiens, HCT-116, 24 h. An outline of the steps:
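Luciferase readout was corrected for viability (CellTiter-Fluor) and scaled between DMSO high and 10 uM CCT251545 low controls, giving IC50 by nonlinear regression. Compounds, serially diluted, were incubated 24 h at 37 °C on HCT116 clones stably expressing a TCF/LEF-driven luciferase reporter.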

In assay [2] the test system is CDK8 (phosphorylation of STAT1 at serine 727 in A549 cells). Description: Cell based Phospho-STAT1 assay (IFNγ-stimulated A549 cells, AlphaLISA). The note with it: Homo sapiens, A549, A549 cells, phospho-STAT1 after IFNγ stimulation. In short, it runs like this:
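A549 cells given serial compound dilutions for 1 h at 37 °C, then stimulated with IFNγ at 10 ng/mL final for 30 min. Lysate STAT1 Ser727 phosphorylation measured by AlphaLISA; % inhibition vs stimulated/unstimulated DMSO controls, IC50 by nonlinear regression.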

For `CN1CCN(C(=O)c2ccc3cc(-c4cnc5[nH]ccc5c4N4CCC(C#N)CC4)ccc3c2)CC1` [Compound P-0328, 1-(5-(6-(4-methylpiperazine-1-carbonyl)naphthalen-2-yl)-1H-pyrrolo[2,3-b]pyridin-4-yl)piperidine-4-carbonitrile], the IC50 in assay [1] and in assay [2] was 0.1 to 100 nM throughout.

Turning to `CC(C)(O)C#Cc1cccn2ncc(-c3ccc4nccn4c3)c12` [Compound P-0286, 4-(3-(imidazo[1,2-a]pyridin-6-yl)pyrazolo[1,5-a]pyridin-4-yl)-2-methylbut-3-yn-2-ol], the values for the IC50 in assay [1] and in assay [2] were 100 to 1000 nM and 0.1 to 100 nM, respectively.

On to `Cn1cc(-c2ccc(-c3cnn4ccnc(C5CCC(C(N)=O)CC5)c34)cc2)cn1` (centres unmarked) [Compound P-0247, 4-(3-(4-(1-methyl-1H-pyrazol-4-yl)phenyl)pyrazolo[1,5-a]pyrazin-4-yl)cyclohexane-1-carboxamide], for which the IC50 in assay [1] and in assay [2] was 0.1 to 100 nM throughout.

For the molecule `N#CC1CCC(c2nccn3ncc(-c4ccc(-c5cnn(CC(N)=O)c5)cc4)c23)CC1` (centres unmarked) [Compound P-0013, 2-(4-(4-(4-((1s,4s)-4-cyanoclohexyl)pyrazolo[1,5-a]pyrazin-3-yl)phenyl)-1H-pyrazol-1-yl)acetamide], the IC50 in assay [1] and in assay [2] was 0.1 to 100 nM each time.

As to `Cc1ccc2cc(-c3cnn4ccnc(C5CCC(C#N)CC5)c34)ccc2n1` (centres unmarked) [Compound P-0187, 4-(3-(2-methylquinolin-6-yl)pyrazolo[1,5-a]pyrazin-4-yl)cyclohexane-1-carbonitrile], the IC50 in assay [1] and in assay [2] was 0.1 to 100 nM throughout.

`Cn1cc(C#Cc2cnc3[nH]ccc3c2C2=CCC(C#N)CC2)cn1` (centres unmarked) [Compound P-0184, 4-[5-[2-(1-methylpyrazol-4-yl)ethynyl]-H-pyrrolo[2,3-b]pyridin-4-yl]cyclohex-3-ene-1-carbonitrile]: the IC50 is 100 to 1000 nM in assay [1] and 0.1 to 100 nM in assay [2].

Take `Cc1ccn2ncc(-c3ccc(-c4cnn(C)c4)cc3)c2c1C1=CCC(C#N)CC1` (centres unmarked) [Compound P-0250, 4-[5-methyl-3-[4-(1-methylpyrazol-4-yl)phenyl]pyrazolo[1,5-a]pyridin-4-yl]cyclohex-3-ene-1-carbonitrile]: the IC50 in assay [1] and in assay [2] was 0.1 to 100 nM in each case.

Take `Cc1ccc2cc(-c3cnn4cccc(C#CC(C)(C)O)c34)ccc2n1` [Compound P-0281, 2-methyl-4-(3-(2-methylquinolin-6-yl)pyrazolo[1,5-a]pyridin-4-yl)but-3-yn-2-ol]: the IC50 in assay [1] and in assay [2] was 100 to 1000 nM throughout.

With `N#CC1CC=C(c2cccn3ncc(-c4ccc(OCCCN5CCCCC5)cc4)c23)CC1` (centres unmarked) [Compound P-0180, 4-(3-(4-(3-(piperidin-1-yl)propoxy)phenyl)pyrazolo[1,5-a]pyridin-4-yl)cyclohex-3-ene-1-carbonitrile], the IC50 in assay [1] and in assay [2] was 0.1 to 100 nM throughout.

Consider `N#CC1CC=C(c2nccn3ncc(-c4ccnc(NC5CCCC5)c4)c23)CC1` (centres unmarked) [Compound P-0074], for which the IC50 in assay [1] and in assay [2] was 100 to 1000 nM throughout.

As to `Cc1ccc2cc(-c3cnn4ccnc(C5=CCC(C(N)=O)CC5)c34)ccc2n1` (centres unmarked) [Compound P-0153, 4-(3-(2-methylquinolin-6-yl)pyrazolo[1,5-a]pyrazin-4-yl)cyclohex-3-ene-1-carboxamide], the IC50 in assay [1] and in assay [2] was 0.1 to 100 nM throughout.

In the case of `COc1ccc(-c2cnn3cccc(C4CCC(C#N)CC4)c23)cc1` (centres unmarked) [Compound P-0137, 4-(3-(4-methoxyphenyl)pyrazolo[1,5-a]pyridin-4-yl)cyclohexane-1-carbonitrile], the IC50 in assay [1] and in assay [2] was 0.1 to 100 nM in each case.

On to `CC(C)(O)Cn1cc(-c2ccc(-c3cnc4[nH]ccc4c3C3=CCC(C#N)CC3)cc2)cn1` (centres unmarked) [Compound P-0332, 4-(5-(4-(1-(2-hydroxy-2-methylpropyl)-1H-pyrazol-4-yl)phenyl)-1H-pyrrolo[2,3-b]pyridin-4-yl)cyclohex-3-ene-1-carbonitrile], for which the IC50 in assay [1] and in assay [2] was 0.1 to 100 nM throughout.
